# ChEMBL document CHEMBL1777684, “Synthesis and evaluation of antioxidant and antibacterial activities of new substituted bis(1,3,4-oxadiazoles), 3,5-bis(substituted) pyrazoles and isoxazoles” (Bioorg Med Chem Lett, 2011)
# Activity calls are given as the source filed them. The rule behind the calls is not given here.
# Legend:
# [1] = system: Radical scavenging activity; test: Antioxidant activity assessed as DPPH radical scavenging activity at 10 ug/ml by UV-visible spectrophotometry; assay type: functional
# [2] = Anti-lipid peroxidation activity ferric chloride-induced lipid peroxidation using egg yolk homogenate at 40 ug/ml by TBARS assay; assay type: physicochemical; settings: tissue homogenate
# Staphylococcus aureus = test: Antibacterial activity against Staphylococcus aureus NCIM 2079 at 100 ug/ml after 24 hrs by agar disc diffusion method; assay type: functional; settings: for zone of inhibition at 100 µg/mL: NCIM 2079, 24 h, read-out: IZ
# Bacillus subtilis = test: Antibacterial activity against Bacillus subtilis NCIM 2063 at 100 ug/ml after 24 hrs by agar disc diffusion method; assay type: functional; settings: NCIM 2063, 24 h, read-out: IZ
# Escherichia coli = test: Antibacterial activity against Escherichia coli NCIM 2065 at 100 ug/ml after 24 hrs by agar disc diffusion method; assay type: functional; settings: for zone of inhibition at 100 µg/mL: NCIM 2065, 24 h, read-out: IZ
# Pseudomonas aeruginosa = test: Antibacterial activity against Pseudomonas aeruginosa NCIM 5029 at 100 ug/ml after 24 hrs by agar disc diffusion method; assay type: functional; settings: for zone of inhibition at 100 µg/mL: NCIM 5029, 24 h, read-out: IZ
Compound,Activity [2],Activity [1],zone of inhibition at 100 µg/mL (Staphylococcus aureus) [mm],zone of inhibition at 100 µg/mL (Bacillus subtilis) [mm],zone of inhibition at 100 µg/mL (Escherichia coli) [mm],zone of inhibition at 100 µg/mL (Pseudomonas aeruginosa) [mm],inhibition zone (IZ) (Escherichia coli),inhibition zone (IZ) (Pseudomonas aeruginosa),inhibition zone (IZ) (Staphylococcus aureus)
Clc1ccc(/C=N/Nc2cc(N/N=C/c3ccc(Cl)cc3)on2)cc1,Not Active,37.4%,14,8,8,6,,,
O=[N+]([O-])c1ccc(/C=N/Nc2cc(N/N=C/c3ccc([N+](=O)[O-])cc3)[nH]n2)cc1,Not Active,74.2%,9,7,11,8,,,
COc1ccc(/C=N/Nc2cc(N/N=C/c3ccc(OC)c(OC)c3)[nH]n2)cc1OC,,47.1%,10,8,13,6,,,
O=C(O)c1cn(C2CC2)c2cc(N3CCNCC3)c(F)cc2c1=O [CIPROFLOXACIN],,,29,18,,18,,,
Clc1ccc(/C=N/Nc2cc(N/N=C/c3ccc(Cl)cc3)[nH]n2)cc1,,40%,4,6,4,5,,,
C(=N\Nc1cc(N/N=C/c2ccccc2)[nH]n1)/c1ccccc1,44%,34.2%,5,9,4,9,,,
O=C1O[C@H]([C@@H](O)CO)C(O)=C1O,,93.2%,,,,,,,
COc1ccc(-c2nnc(Cc3nnc(-c4ccc(OC)c(OC)c4)o3)o2)cc1OC,,inactive,10,11,10,9,,,
CN(C)c1ccc(/C=N/Nc2cc(N/N=C/c3ccc(N(C)C)cc3)[nH]n2)cc1,,59.2%,20,10,9,8,,,
COc1cc(/C=N/Nc2cc(N/N=C/c3cc(OC)c(OC)c(OC)c3)[nH]n2)cc(OC)c1OC,,52.4%,17,12,,9,inactive,,

# Continued, in another order:
Activity [2],Compound,Activity [1],zone of inhibition at 100 µg/mL (Staphylococcus aureus) [mm],zone of inhibition at 100 µg/mL (Bacillus subtilis) [mm],zone of inhibition at 100 µg/mL (Escherichia coli) [mm],zone of inhibition at 100 µg/mL (Pseudomonas aeruginosa) [mm],inhibition zone (IZ) (Escherichia coli),inhibition zone (IZ) (Pseudomonas aeruginosa),inhibition zone (IZ) (Staphylococcus aureus)
46.3%,CN(C)c1ccc(-c2nnc(Cc3nnc(-c4ccc(N(C)C)cc4)o3)o2)cc1,28%,13,12,10,9,,,
16.2%,Clc1ccc(-c2nnc(Cc3nnc(-c4ccc(Cl)cc4)o3)o2)cc1,40%,4,6,,,inactive,inactive,
54.5%,CN(C)c1ccc(/C=N/Nc2cc(N/N=C/c3ccc(N(C)C)cc3)on2)cc1,90.6%,20,15,10,12,,,
58.6%,Oc1ccc(/C=N/Nc2cc(N/N=C/c3ccc(O)cc3)[nH]n2)cc1,83%,,7,13,18,,,inactive
48.6%,Oc1ccccc1-c1nnc(Cc2nnc(-c3ccccc3O)o2)o1,37%,9,13,8,5,,,
40.5%,COc1ccc(-c2nnc(Cc3nnc(-c4ccc(OC)cc4)o3)o2)cc1,inactive,9,8,6,7,,,
46.3%,COc1ccc(/C=N/Nc2cc(N/N=C/c3ccc(OC)cc3)[nH]n2)cc1,44.3%,28,20,18,19,,,
53.4%,Oc1ccc(-c2nnc(Cc3nnc(-c4ccc(O)cc4)o3)o2)cc1,36%,7,2,1,1,,,
33.4%,c1ccc(-c2nnc(Cc3nnc(-c4ccccc4)o3)o2)cc1,41.3%,7,10,5,13,,,
48.4%,COc1cc(/C=N/Nc2cc(N/N=C/c3cc(OC)c(OC)c(OC)c3)on2)cc(OC)c1OC,54%,13,10,11,9,,,
70%,VITAMIN E,,,,,,,,
44.3%,COc1cc(-c2nnc(Cc3nnc(-c4cc(OC)c(OC)c(OC)c4)o3)o2)cc(OC)c1OC,,7,3,,,inactive,inactive,
